Consider 1 compound from EP4692088A1, “COMPOUND ACTING AS WRN HELICASE INHIBITOR” (SHANGHAI JEYOU PHARMACEUTICAL CO., LTD., priority 2023, dated 2024).

One data set deals with HCT116 cells. Nature of the data set: Cell proliferation assay (CellTiter-Glo), HCT116. In kind it is cell-based. The following applies: Homo sapiens, 120 h, HCT-116, 5 days incubation. On the procedure:
(§1) SW48 cells were plated at a density of 1,500 cells/well, and LoVo, HCT116, and SW620 cells were plated at a density of 800 cells/well in a 96-well cell culture plate, and cultured in a 37°C incubator overnight. The test compounds, which were gradient-diluted with DMSO, were added, and after incubation for 5 days, cell viability was detected using a CellTiter-Glo kit. The CellTiter-Glo reagent was equilibrated to room temperature, and an appropriate amount was added to the cell plate, followed by shaking at room temperature for 12 min. The luminescence signal was detected using a microplate reader.
(§2) The luminescence signal values of the DMSO-treated wells and cell-free wells were used as negative and positive controls, respectively, to calculate the inhibition rate of compound on cell proliferation. The concentration-inhibition curve was fitted using the "log(inhibitor) vs. normalized response -- Variable slope" equation in GraphPad Prism 8 software to obtain the IC50. [formula]

Another data set deals with SW48 cells. Nature of the data set: Cell proliferation assay (CellTiter-Glo), SW48. In kind it is cell-based. The following applies: Homo sapiens, SW48, 120 h, SW-48, 5 days incubation. On the procedure: as §1, §2
The next data set has as its system LoVo. Nature of the data set: Cell proliferation assay (CellTiter-Glo), LoVo. In kind it is cell-based. The settings on record: Homo sapiens, 120 h, 5 days incubation. The protocol:
as §1, §2

Data set [1] concerns SW620 cells. Nature of the data set: Cell proliferation assay (CellTiter-Glo), SW620. In kind it is cell-based. The settings on record: Homo sapiens, 120 h, SW-620 (MSS), 5 days incubation. The protocol: as §1, §2
Another data set concerns HCT116. In words: γH2AX induction assay (HTRF Phospho-H2AX), HCT116. In kind it is cell-based. The following applies: Homo sapiens, HCT-116, incubated for 2-3 days, read-out: γ-H2AX induction HCT-116 (EC50 nM). On the procedure: (§3) SW48, HCT116, and SW620 cells were plated into 96-well cell culture plates at a density of 15,000-25,000 cells/well and cultured overnight in a 37°C incubator. The test compounds, which were gradient-diluted with DMSO, were added and incubated for 2-3 days. The γ-H2AX level was detected using HTRF Phospho-H2AX (SER139) Detection Kits. The 4× Lysis buffer and Detection buffer were equilibrated to room temperature for later use. The 4× Lysis buffer was diluted to 1× Lysis buffer using ddH2O. After the medium was aspirated, 50 µL of 1× Lysis buffer was added to each well and shaken at room temperature for 30 minutes for lysis. 16 µL of lysate was transferred to a 384-well plate, followed by the addition of 4 µL of diluted antibody mixture (Phospho-H2AX d2 antibody and Phospho-H2AX Eu Cryptate antibody were each diluted 20-fold using Detection buffer, and the two antibodies were then mixed uniformly at a 1:1 volume ratio). The mixture was incubated at room temperature for 2-24 h, and fluorescence signals at […] and 615 nm were detected using a microplate reader. Parallel treatment plates were simultaneously set up in the experiment, and cell viability was detected using the CellTiter-Glo kit. The CellTiter-Glo reagent was equilibrated to room temperature, and an appropriate amount was added to the cell plate, followed by shaking at room temperature for 12 min. The luminescence signal was detected using a microplate reader.
(§4) The fluorescence signal values of DMSO-treated wells and positive drug-treated wells were used as negative and positive controls, respectively, to calculate the level of γ-H2AX induced by the compounds. The concentration-induction rate curve was fitted using the "log(agonist) vs. response -- Variable slope (four parameters)" equation in GraphPad Prism 8 software to obtain the EC50. [formula] [formula]

The next data set relates to SW48. In words: γH2AX induction assay (HTRF Phospho-H2AX), SW48. In kind it is cell-based. The settings on record: Homo sapiens, SW-48, incubated for 2-3 days, read-out: γ-H2AX induction SW-48 (EC50 nM). The protocol: as §3, §4
Data set [2] relates to SW620 cells. In words: γH2AX induction assay (HTRF Phospho-H2AX), SW620. Type of data set: cell-based. The following applies: Homo sapiens, SW-620 (MSS), incubated for 2-3 days, read-out: γ-H2AX induction SW-620 (EC50 nM). The protocol: as §3, §4
Data set [3] in a line: Pharmacokinetic test in mice. In kind it is in vivo. The settings on record: mouse, CD-1 mice, male, oral gavage, 10 mg/kg, plasma. The protocol:
CD-1 mice were taken as test animals. Example 4, Example 22, and Comparative Example HRO761 were given by gavage. The drug concentrations in mouse plasma at different time points were determined by LC-MS/MS to investigate the pharmacokinetic characteristics of the compounds of the present disclosure in mice.
• Experimental drugs: Example 4, Example 22, and Comparative Example HRO761; • Animals: CD-1 mice, male, 24-25 g, purchased from Shanghai Jihui Laboratory Animal Care Co.,Ltd.
An appropriate amount of Example 4, Example 22, and Comparative Example HRO761 was weighed and sequentially added to an appropriate amount of dimethyl sulfoxide, solutol, and saline (final solvent: 5% DMSO + 10% solutol + 85% saline). The mixture was vortexed and sonicated to prepare a 1.0 mg/mL dosing solution.
Three mice in gavage groups of Example 4, Example 22, and Comparative Example HRO761 were administered by oral gavage after overnight fasting (dose: 10 mg/kg, administration volume: 10 mL/kg), and the mice were fed 4 h after administration.
0.04 mL of blood was collected from the animals before administration and at 0.083 h, 0.25 h, 0.5 h, 1 h, 2 h, 4 h, 6 h, 8 h, and 24 h after administration, and anticoagulated with sodium heparin. Blood samples were placed on ice after collection, and plasma was separated by centrifugation (centrifugation conditions: 8000 rpm, 5 min). The collected plasma was stored at -80°C before analysis.
LC-MS/MS was used to determine the content of the test compound in mouse plasma after intragastric administration.
Based on the calculated concentrations of the compounds in plasma at different time points, the pharmacokinetic parameters of Example 4, Example 22, and Comparative Example HRO761 in mice were calculated using winnonlin software. The pharmacokinetic parameters of Example 4, Example 22, and Comparative Example HRO761 of the present disclosure are shown in Table 13.

Data set [4] is described as follows: Pharmacokinetic test in rats. Type of data set: in vivo. The settings on record: rat, SD rats, male, oral gavage, 10 mg/kg, plasma. On the procedure:
SD rats were taken as test animals. Example 4, Example 15, and Comparative Example HRO761 were given by gavage. The drug concentrations in rat plasma at different time points were determined by LC-MS/MS to investigate the pharmacokinetic characteristics of Example 4, Example 15, and Comparative Example HRO761 in rats.
• Experimental drugs: Example 4, Example 15, and Comparative Example HRO761; • Animals: SD rats, male, 240-260 g, purchased from Shanghai Jihui Laboratory Animal Care Co.,Ltd.
An appropriate amount of Example 4, Example 15, and Comparative Example HRO761 was weighed and added to an appropriate amount of dimethyl sulfoxide, solutol, and saline (final solvent: 5% DMSO + 10% solutol + 85% saline). The mixture was vortexed and sonicated to prepare a 1.0 mg/mL dosing solution.
The rats in gavage groups (3 rats per group) of Example 4, Example 15, and Comparative Example HRO761 were administered by oral gavage after overnight fasting (dose: 10 mg/kg, administration volume: 10 mL/kg), and the rats were fed 4 h after administration.
0.2 mL of blood was collected from the animals before administration and at 0.083 h, 0.25 h, 0.5 h, 1 h, 2 h, 4 h, 6 h, 8 h, and 24 h after administration, and anticoagulated with sodium heparin. Blood samples were placed on ice after collection, and plasma was separated by centrifugation (centrifugation conditions: 8000 rpm, 5 min). The collected plasma was stored at -80°C before analysis.
The contents of Example 4, Example 15, and Comparative Example HRO761 in rat plasma after oral administration were determined by LC-MS/MS.
Based on the calculated concentrations of the compounds in plasma at different time points, the pharmacokinetic parameters of Example 4, Example 15, and Comparative Example HRO761 in rats were calculated using winnonlin software. The pharmacokinetic parameters of Example 4, Example 15, and Comparative Example HRO761 of the present disclosure are shown in Table 14.

As to `CCc1c(N2CCN(C(=O)c3ncnc(C)c3O)CC2)c(=O)n2nc(C3=CCOCC3)nc2n1CC(=O)Nc1ccc(C(F)(F)F)cc1Cl` [HRO761, reference compound], the IC50 was 143 nM in the data set on HCT116 cells, 144 nM in the data set on SW48 cells, 220 nM in the data set with LoVo and greater than 25000 nM in the data set with SW620 cells [1]. The results for the EC50 with HCT116, with SW48 and in the data set on SW620 cells [2] were 640 nM, 324 nM and greater than 10000 nM, respectively. Moreover, the maximum concentration (Cmax) stood at 11200 ng/mL in data set [3] and 6960 ng/mL in data set [4]. In addition, the AUC in [3] (read-out: AUC0-i) was determined as 28300 ng·h/mL; in data set [4] (read-out: AUC0-i), 63600 ng·h/mL.
